Reference: patent US9993487B2 (Universite de Liege, priority 2014, dated 2018)

How the values were obtained:
IL13 = assay: OVA model: IL13 ELISA in lung protein extracts; assay type: in vivo, BALB/c mice; conditions: FIG. 3
Experimental: In order to study modulation of airway inflammation, BALB/c mice of about 6 to about 8 weeks old are sensitized by intraperitoneal injection of about 10 μg ovalbumin (OVA) (Sigma Aldrich, Schnelldorf, Germany) emulsified in aluminum hydroxide (AlumInject; Perbio, Erembodegem, Belgium) on days 0 (DO) and 7 (D7). Mice are subsequently exposed to allergens by daily inhalation of an aerosol of OVA about 1%, for about 30 minutes, generated by ultrasonic nebulizer (Devilbiss 2000), from day 21 to day 25. Mice are subjected to about 50 μl intra-nasal instillations from day 18 to day 24 and are sacrificed on day 26, as previously reported by Cataldo et al.: Am. J. Pathol. 161 (2):491-498 (2002), which is incorporated herein in its entirety by reference. Placebo mice are intra-nasal injected with PBS. As stated above, the left lung is excised and frozen immediately at about −80° C. and then disrupted in liquid N2 by using a Mikro-Dismembrator (Braun Biotech International, Gmbh Melsungen, Germany) to form a homogenized powder. […] IL13 levels are measured in non-pooled lung protein samples by ELISA (duoset kit, R&D Systems, Abingdon, United Kingdom) following manufacturer's instructions. […]

[1] = tested on: Cigarette smoke-exposed mice; assay: Cigarette smoke exposure model: BALF neutrophils; assay type: in vivo, C57BL/6 mice; conditions: budesonide alone about 500 μg/ml
Experimental: BALF supernatant is collected for protein assessment while cells are used for differential cell counts. Differential cell counts based on morphologic criteria are carried out on cytocentrifuged preparations after staining with haematoxylin-eosin (Diff-Quick, Dade, Belgium). Cells are recovered by gentle manual aspiration. After centrifugation of bronchoalveolar fluid (BALF) (about 1200 rpm for about 10 minutes, at about 4° C.), the supernatant is frozen at about −80° C. for protein assessment and the cell pellet is re-suspended in about 1 ml PBS-EDTA about 0.05 mM. The differential cell counts are performed on cytocentrifuged preparations (Cytospin) after staining with Diff-Quick (Dade, Belgium).
C57BL/6 mice are exposed to 10 cigarettes 5 days per week during 6 weeks using the Inexpose® system (Scireq, Montreal, Canada). Mice are treated by an about 50 μl intra-nasal injection 5 days per week during 6 weeks. Mice are sacrificed on day 43. Placebo mices also called sham exposed mices are injected with PBS.
Bronchoalveolar lavage fluid (BALF) analysis is the same as previously described in Example 3 (model of airway obstruction and inflammation).
Results of inflammatory cells in bronchoalveolar lavage fluid number were expressed as mean +/− SEM and the comparison between the groups is performed using Mann-Whitney test. Tests are performed using GraphPad Prism 5. […]

[2] = Stability of betamethasone dipropionate under autoclave; assay type: physicochemical

| stability under autoclave [2] | SMILES | IL13 levels in lung tissue after allergen exposure (IL13; budesonide about 100 μg/ml compared to budesonide about 100 μg/ml—cyclodextrin about 10 mM) | IL13 levels in lung tissue after allergen exposure (IL13; budesonide about 250 μg/ml compared to complex budesonide about 250 μg/ml—cyclodextrin about 10 mM) | inflammation level in BALF of treated mice [1] | Percentage of neutrophils (+/−SEM) in BALF, Neutrophils (%) ([1]; about 50 μl intra-nasal 5 days per week during 6 weeks) |
| --- | --- | --- | --- | --- | --- |
|  | CCCC1O[C@@H]2C[C@H]3[C@@H]4CCC5=CC(=O)C=C[C@]5(C)[C@H]4[C@@H](O)C[C@]3(C)[C@]2(C(=O)CO)O1 (stereo partly drawn) [budesonide, 16,17-(butylidenebis(oxy))-11,21-dihydroxy-, (11-β3,16-a)-pregna-1,4-diene-3,20-dione] | higher IL13 levels | higher levels of IL13 | significantly not efficient enough | about 9.64% |
| degrades under autoclave | CCC(=O)OCC(=O)[C@@]1(OC(=O)CC)[C@@H](C)C[C@H]2[C@@H]3CCC4=CC(=O)C=C[C@]4(C)[C@@]3(F)[C@@H](O)C[C@@]21C [Betamethasone Dipropionate] |  |  |  |  |
